Converted amounts (≈) assume the structure as drawn. Like-named read-outs stand apart in the source and are kept apart here.
Tests used:
[1] = system: E. coli ATCC 25922 (AECO001); experiment: MIC assay, CLSI broth microdilution; type: cell-based; parameters: MIC AECO001: unit not given here; conditions: for MIC: Escherichia coli; for MIC AECO001: Table 3, E. coli ATCC25922
Procedure: (§1) Minimum inhibitory concentrations (MIC) were determined by reference Clinical and Laboratory Standards Institute (CLSI) broth microdilution methods per M7-A7 [2006]. Quality control ranges utilizing E. coli ATCC 25922, P. aeruginosa ATCC 27853 and S. aureus ATCC 29213, and interpretive criteria for comparator agents were as published in CLSI M100-S17 [2007]. Briefly, serial two-fold dilutions of the test compounds were prepared at 2× concentration in Mueller Hinton Broth. The compound dilutions were mixed in 96-well assay plates in a 1:1 ratio with bacterial inoculum. The inoculum was prepared by suspension of a colony from an agar plate that was prepared the previous day. Bacteria were suspended in sterile saline and added to each assay plate to obtain a final concentration of 5×10^5 CFU/mL. The plates were incubated at 35° C. for 20 hours in ambient air.

[2] = system: P. aeruginosa ATCC 27853 (APAE001); experiment: MIC assay, CLSI broth microdilution; type: cell-based; conditions: Pseudomonas aeruginosa
Procedure: as §1

[3] = ATCC25922, read-out: MIC AECO001
[4] = ATCC27853, read-out: MIC APAE001
[5] = Table 1, AECO001 is ATCC25922, read-out: MIC AECO001
[6] = Table 1, APAE001 is ATCC27853, read-out: MIC APAE001

MIC [1, 5]	MIC AECO001 [1]	MIC [2, 6]	Compound	MIC [1, 3]	MIC [2, 4]
			CN[C@@H]1[C@@H](O)[C@@H](O[C@@H]2[C@@H](O)[C@H](O[C@H]3OC(CNCCCCN)=CC[C@H]3N)[C@@H](N)C[C@H]2NC(=O)[C@@H](O)CCN)OC[C@]1(C)O [Example 43, 6′-(4-Amino-butyl)-1-(4-amino-2(S)-hydroxy-butyryl)-sisomicin]	< 1 µg/mL	< 1 µg/mL
			CN[C@@H]1[C@@H](O)[C@@H](O[C@@H]2[C@@H](O)[C@H](O[C@H]3OC(CNC[C@H](O)CO)=CC[C@H]3N)[C@@H](N)C[C@H]2NC(=O)[C@@H](O)CCN)OC[C@]1(C)O [Example 28, 6′-(2(S)-Hydroxy-propanol)-1-(4-amino-2(S)-hydroxy-butyryl)-sisomicin]	1 to 16 µg/mL (≈ 1.61 to 25.7 µM)	1 to 16 µg/mL (≈ 1.61 to 25.7 µM)
			CN[C@@H]1[C@@H](O)[C@@H](O[C@@H]2[C@@H](O)[C@H](O[C@H]3OC(CN)=CC[C@H]3NC(=O)C3CCCN3)[C@@H](N)C[C@H]2NC(=O)[C@@H](O)CCN)OC[C@]1(C)O (stereo partly shown) [Example 90]	< 1 µg/mL	1 to 16 µg/mL (≈ 1.55 to 24.8 µM)
			CN[C@@H]1[C@@H](O)[C@@H](O[C@@H]2[C@@H](O)[C@H](O[C@H]3OC(CNCCCC(O)CN)=CC[C@H]3N)[C@@H](N)C[C@H]2NC(=O)[C@@H](O)CN)OC[C@]1(C)O (stereo partly drawn) [Example 80, 6′-(4-Hydroxy-5-amino-pentyl)-1-(3-amino-2(S)-hydroxy-propionyl)-sisomicin]	< 1 µg/mL	< 1 µg/mL
1 to 16 µg/mL (≈ 1.7 to 27.2 µM)	1	> 16 µg/mL	CN[C@@H]1[C@@H](O)[C@@H](O[C@@H]2[C@@H](O)[C@H](O[C@H]3OC(CNCC4CC4)=CC[C@H]3N)[C@@H](N)C[C@H]2NC(=O)[C@@H](O)CN)OC[C@]1(C)O [Example 13, 6′-(Methyl-cyclopropyl)-1-(3-amino-2(S)-hydroxy-propionyl)-sisomicin]		
			CN[C@@H]1[C@@H](O)[C@@H](O[C@@H]2[C@@H](O)[C@H](O[C@H]3OC(CN)=CC[C@H]3NCC(O)CN)[C@@H](N)C[C@H]2NC(=O)[C@@H](O)CCN)OC[C@]1(C)O (stereo partly drawn) [Example 101, 2′-(2-Hydroxy-3-amino-propyl)-1-(4-amino-2(S)-hydroxy-butyryl)-sisomicin]	< 1 µg/mL	1 to 16 µg/mL (≈ 1.61 to 25.7 µM)
			CN[C@@H]1[C@@H](O)[C@@H](O[C@@H]2[C@@H](O)[C@H](O[C@H]3OC(CN)=CC[C@H]3NCC(O)CO)[C@@H](N)C[C@H]2NC(=O)[C@@H](O)CCN)OC[C@]1(C)O (stereo partly drawn) [Example 100, 2′-(2-Hydroxy-propanol)-1-(4-amino-2(S)-hydroxy-butyryl)-sisomicin]	1 to 16 µg/mL (≈ 1.61 to 25.7 µM)	> 16 µg/mL
			CN[C@@H]1[C@@H](O)[C@@H](O[C@@H]2[C@@H](O)[C@H](O[C@H]3OC(CNCC4(N)CCC4)=CC[C@H]3N)[C@@H](N)C[C@H]2NC(=O)[C@@H](O)CN)OC[C@]1(C)O [Example 56, 6′-(Methyl-1-amino-cyclobutyl)-1-(3-amino-2(S)-hydroxy-propionyl)-sisomicin]	< 1 µg/mL	> 16 µg/mL
			CN[C@@H]1[C@@H](O)[C@@H](O[C@@H]2[C@@H](O)[C@H](O[C@H]3OC(CNCCC4(O)CNC4)=CC[C@H]3N)[C@@H](N)C[C@H]2NC(=O)[C@@H](O)CN)OC[C@]1(C)O [Example 70, 6′-(Ethyl-2-(3-hydroxy-azetidin-3-yl))-1-(3-amino-2(S)-hydroxy-propionyl)-sisomicin]	1 to 16 µg/mL (≈ 1.58 to 25.2 µM)	> 16 µg/mL
			CN[C@@H]1[C@@H](O)[C@@H](O[C@@H]2[C@@H](O)[C@H](O[C@H]3OC(CNCC(O)CN)=CC[C@H]3N)[C@@H](N)C[C@H]2NC(=O)C2(O)CCNC2)OC[C@]1(C)O (stereo partly shown) [Example 42, 6′-(2-Hydroxy-3-amino-propyl)-1-(3-hydroxy-pyrrolidin-3-yl-acetyl)-sisomicin]	1 to 16 µg/mL (≈ 1.58 to 25.2 µM)	1 to 16 µg/mL (≈ 1.58 to 25.2 µM)
			CN[C@@H]1[C@@H](O)[C@@H](O[C@@H]2[C@@H](O)[C@H](O[C@H]3OC(CN)=CC[C@H]3NCC3CCCN3)[C@@H](N)C[C@H]2NC(=O)[C@@H](O)CCN)OC[C@]1(C)O (stereo partly drawn) [Example 85, 2′-(Methyl-pyrrolidin-2-yl)-1-(4-amino-2(S)-hydroxy-butyryl)-sisomicin]	< 1 µg/mL	1 to 16 µg/mL (≈ 1.58 to 25.3 µM)
			CN[C@@H]1[C@@H](O)[C@@H](O[C@@H]2[C@@H](O)[C@H](O[C@H]3OC(CNCC(O)CCCN)=CC[C@H]3N)[C@@H](N)C[C@H]2NC(=O)[C@@H](O)CCN)OC[C@]1(C)O (stereo partly drawn) [Example 32, 6′-(2-Hydroxy-5-amino-pentyl)-1-(4-amino-2(S)-hydroxy-butyryl)-sisomicin]	< 1 µg/mL	1 to 16 µg/mL (≈ 1.54 to 24.6 µM)
			CN[C@@H]1[C@@H](O)[C@@H](O[C@@H]2[C@@H](O)[C@H](O[C@H]3OC(CNCCO)=CC[C@H]3N)[C@@H](N)C[C@H]2NC(=O)[C@H](O)CN)OC[C@]1(C)O [Example 9, 6′-(2-Hydroxy-ethyl)-1-(3-amino-2(R)-hydroxy-propionyl)-sisomicin]	1 to 16 µg/mL (≈ 1.73 to 27.6 µM)	> 16 µg/mL
			CN[C@@H]1[C@@H](O)[C@@H](O[C@@H]2[C@@H](O)[C@H](O[C@H]3OC(CNCC(O)CCN)=CC[C@H]3N)[C@@H](N)C[C@H]2NC(=O)C(O)C2CNC2)OC[C@]1(C)O (stereo partly shown) [Example 77, 6′-(2-Hydroxy-4-amino-butyl)-1-(2-(azetidin-3-yl)-2-hydroxy-acetyl)-sisomicin]	1 to 16 µg/mL (≈ 1.54 to 24.7 µM)	1 to 16 µg/mL (≈ 1.54 to 24.7 µM)
			CN[C@@H]1[C@@H](O)[C@@H](O[C@@H]2[C@@H](O)[C@H](O[C@H]3OC(CNCCO)=CC[C@H]3N)[C@@H](N)C[C@H]2NC(=O)C2(O)CNC2)OC[C@]1(C)O [Example 37]	< 1 µg/mL	1 to 16 µg/mL (≈ 1.69 to 27.1 µM)
			CN[C@@H]1[C@@H](O)[C@@H](O[C@@H]2[C@@H](O)[C@H](O[C@H]3OC(CNCC4CCNCC4)=CC[C@H]3N)[C@@H](N)C[C@H]2NC(=O)[C@H](O)CCN)OC[C@]1(C)O [Example 4, 6′-(Methyl-piperidin-4-yl)-1-(4-amino-2(R)-hydroxy-butyryl)-sisomicin]	1 to 16 µg/mL (≈ 1.55 to 24.8 µM)	1 to 16 µg/mL (≈ 1.55 to 24.8 µM)
1 to 16 µg/mL (≈ 1.55 to 24.8 µM)	1	1 to 16 µg/mL (≈ 1.55 to 24.8 µM)	CN[C@@H]1[C@@H](O)[C@@H](O[C@@H]2[C@@H](O)[C@H](O[C@H]3OC(CNCC4CCNCC4)=CC[C@H]3N)[C@@H](N)C[C@H]2NC(=O)[C@@H](O)CCN)OC[C@]1(C)O [Example 12, 6′-(Methyl-piperidin-4-yl)-1-(4-amino-2(S)-hydroxy-butyryl)-sisomicin]		
			CNCC1=CC[C@@H](NC(=N)N)[C@@H](O[C@H]2[C@H](O)[C@@H](O[C@H]3OC[C@](C)(O)[C@H](NC)[C@H]3O)[C@H](N)C[C@@H]2N)O1 [Example 108, 6′-Methyl-2′-guanidinium-sisomicin]	< 1 µg/mL	1 to 16 µg/mL (≈ 1.99 to 31.8 µM)
< 1 µg/mL	1	1 to 16 µg/mL (≈ 1.66 to 26.5 µM)	CN[C@@H]1[C@@H](O)[C@@H](O[C@@H]2[C@@H](O)[C@H](O[C@H]3OC(CNCC4CC4)=CC[C@H]3N)[C@@H](N)C[C@H]2NC(=O)[C@@H](O)CCN)OC[C@]1(C)O [Example 18, 6′-(Methyl-cyclopropyl)-1-(4-amino-2(S)-hydroxy-butyryl)-sisomicin]		
			CN[C@@H]1[C@@H](O)[C@@H](O[C@@H]2[C@@H](O)[C@H](O[C@H]3OC(CN)=CC[C@H]3NC(=O)C(C)N)[C@@H](N)C[C@H]2NC(=O)[C@@H](O)CCN)OC[C@]1(C)O (stereo partly drawn) [Example 88, 2′-(2-Amino-propionyl)-1-(4-amino-2(S)-hydroxy-butyryl)-sisomicin]	1 to 16 µg/mL (≈ 1.61 to 25.8 µM)	1 to 16 µg/mL (≈ 1.61 to 25.8 µM)
			CN[C@@H]1[C@@H](O)[C@@H](O[C@@H]2[C@@H](O)[C@H](O[C@H]3OC(CN)=CC[C@H]3NCCCCN)[C@@H](N)C[C@H]2NC(=O)[C@@H](O)CCN)OC[C@]1(C)O [Example 102, 2′-(4-Amino-butyl)-1-(4-amino-2(S)-hydroxy-butyryl)-sisomicin]	< 1 µg/mL	1 to 16 µg/mL (≈ 1.61 to 25.8 µM)
			CN[C@@H]1[C@@H](O)[C@@H](O[C@@H]2[C@@H](O)[C@H](O[C@H]3OC(CN)=CC[C@H]3NC(=O)CN)[C@@H](N)C[C@H]2NC(=O)[C@@H](O)CCN)OC[C@]1(C)O [Example 87, 2′-(2-Amino-acetyl)-1-(4-amino-2(S)-hydroxy-butyryl)-sisomicin]	1 to 16 µg/mL (≈ 1.65 to 26.4 µM)	1 to 16 µg/mL (≈ 1.65 to 26.4 µM)
			CN[C@@H]1[C@@H](O)[C@@H](O[C@@H]2[C@@H](O)[C@H](O[C@H]3OC(CNCC4CC4)=CC[C@H]3N)[C@@H](N)C[C@H]2NC(=O)[C@H](O)CCN)OC[C@]1(C)O [Example 5, 6′-(Methyl-cyclopropyl)-1-(4-amino-2(R)-hydroxy-butyryl)-sisomicin]	< 1 µg/mL	1 to 16 µg/mL (≈ 1.66 to 26.5 µM)
			CN[C@@H]1[C@@H](O)[C@@H](O[C@@H]2[C@@H](O)[C@H](O[C@H]3OC(CNCC(O)C(N)=O)=CC[C@H]3N)[C@@H](N)C[C@H]2NC(=O)[C@@H](O)CN)OC[C@]1(C)O (stereo partly drawn) [Example 21, 6′-(2-Hydroxy-3-propionamide)-1-(3-amino-2(S)-hydroxy-propionyl)-sisomicin]	1 to 16 µg/mL (≈ 1.61 to 25.7 µM)	1 to 16 µg/mL (≈ 1.61 to 25.7 µM)
			CN[C@@H]1[C@@H](O)[C@@H](O[C@@H]2[C@@H](O)[C@H](O[C@H]3OC(CNC[C@H]4C[C@H](N)C4)=CC[C@H]3N)[C@@H](N)C[C@H]2NC(=O)C2(O)CC(N)C2)OC[C@]1(C)O (stereo partly shown) [Example 60]	< 1 µg/mL	1 to 16 µg/mL (≈ 1.55 to 24.9 µM)

Compound	MIC [1, 5]	MIC AECO001 [1]	MIC [2, 6]	MIC [1, 3]	MIC [2, 4]
CN[C@@H]1[C@@H](O)[C@@H](O[C@@H]2[C@@H](O)[C@H](O[C@H]3OC(CNCCC4CNCCN4C)=CC[C@H]3N)[C@@H](N)C[C@H]2NC(=O)[C@@H](O)CCN)OC[C@]1(C)O (stereo partly shown) [Example 45]	< 1 µg/mL		1 to 16 µg/mL (≈ 1.48 to 23.7 µM)		

From patent US20190374563A1, “TREATMENT OF KLEBSIELLA PNEUMONIAE INFECTIONS WITH ANTIBACTERIAL AMINOGLYCOSIDE COMPOUNDS” (Achaogen, Inc., priority 2009, published 2019)
